A word on the inhibition: it is the relative decrease from the control value, in per cent.

Common to all, as to test: inhibitor selectivity across mouse and human LYPLA2, LYPLA1 – cell lysate, gel-based ABPP, FP-Rh fluorescence, mouse brain membrane proteome, selectivity assay for LYPLA2 selective inhibitor project, late-stage follow-up (AID 652030)
Test [1] concerns the target Acyl-protein thioesterase 2 (Homo sapiens) (UniProt O95372). To be noted: rhLYPLA2, at 10 µM, active compounds read high.
Test [2] addresses Acyl-protein thioesterase 2 (Mus musculus) (UniProt Q9WTL7). Conditions: emLYPLA2, at 10 µM, active compounds read high.
For test [3], the target named is Acyl-protein thioesterase 1 (Mus musculus) (UniProt P97823). To be noted: emLYPLA1, at 10 µM, active compounds read high.

Each structure is given as a SMILES string. Activity calls are given as the source filed them.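 How the source made its calls: active means inhibition of 30% or more against both LYPLA2 panels while inhibition against LYPLA1 stays below 30%; inactive means under 30% on either LYPLA2 panel, or 30%+ on LYPLA1.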

Sequence of Acyl-protein thioesterase 2 (Homo sapiens) (O95372 whole entry, looked up): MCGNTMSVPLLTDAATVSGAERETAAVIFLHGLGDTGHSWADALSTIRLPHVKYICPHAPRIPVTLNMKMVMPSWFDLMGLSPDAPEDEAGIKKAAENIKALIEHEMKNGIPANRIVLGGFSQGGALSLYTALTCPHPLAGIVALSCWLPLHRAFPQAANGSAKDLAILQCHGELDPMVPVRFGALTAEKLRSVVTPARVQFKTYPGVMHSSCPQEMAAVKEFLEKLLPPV

Consider `COc1ccccc1-n1cc(C(=O)NCC(=O)N2CCN(Cc3ccccc3)CC2)c2ccccc2c1=O`, for which the values for the inhibition in test [1], in test [2] and in test [3] were 14% (inactive), 15% (inactive) and 0% (inactive), respectively.

On to `CC(=O)N1c2ccc(S(=O)(=O)N3CCC(C(=O)N4CCN(c5ccc(Cl)cc5)CC4)CC3)cc2CC1C` (stereo not drawn), for which the figures for the inhibition in test [1], in test [2] and in test [3] were 32%, 26% (inactive) and 3% (inactive), respectively.

In the case of `CCN(CC)S(=O)(=O)c1ccc(N2CCOCC2)c(NC(=O)COc2ccc(C#N)cc2)c1`, the values for the inhibition in test [1], in test [2] and in test [3] were 3% (inactive), 0% (inactive) and 12% (inactive), respectively.

Regarding `O=C(COc1ccc(Cl)cc1Cl)N1CCN(C/C=C/c2ccccc2)CC1`, the inhibition in test [1] was 2% (inactive); in test [2], 0% (inactive); in test [3], 0% (inactive).

On to `Cc1ccc(N/C=C(\C#N)c2ccc(OCCCF)cc2)cc1`, for which the inhibition was 5% (inactive) in test [1], 13% (inactive) in test [2] and 17% (inactive) in test [3].

As to `O=C(O)c1cccc(N2C(=O)c3ccc(Oc4ccc(Cl)cc4)cc3C2=O)c1`, the inhibition in test [1] is 7% (inactive); in test [2] it was 11% (inactive); in test [3], 25% (inactive).

`O=C(N1CCOCC1)n1nnc2ccccc21`: the inhibition in test [1] was 47%; in test [2], 54%; in test [3], 103%.

In the case of `CC(=O)c1ccc(N2CCN(C(=O)C3CCN(S(=O)(=O)c4ccc5c(c4)CC(C)N5C(=O)C4CC4)CC3)CC2)cc1` (stereo not drawn), the inhibition in test [1] is 10% (inactive); in test [2] it was 19% (inactive); in test [3], 18% (inactive).

Turning to `O=C(Cn1cnc2ccccc2c1=O)c1ccc(OC(F)F)cc1`, the figures for the inhibition in test [1], in test [2] and in test [3] were 7% (inactive), 8% (inactive) and 5% (inactive), respectively.

Regarding `O=C(NCC1CCN(c2ccc(S(=O)(=O)N3CCOCC3)cc2)CC1)c1ccc(Cl)cc1`, the inhibition in test [1] was 9% (inactive); in test [2], 9% (inactive); in test [3] it was 3% (inactive).

Turning to `CC(=O)c1ccc(N2CCN(C(=O)C3CCN(S(=O)(=O)c4ccc5c(c4)CC(C)N5C(C)=O)CC3)CC2)cc1` (stereo not drawn), the figures for the inhibition in test [1], in test [2] and in test [3] were 8% (inactive), 10% (inactive) and 18% (inactive), respectively.

On to `Cc1ccc(NC(=O)Cn2c([N+](=O)[O-])cnc2C)cc1Cl`, for which the inhibition in test [1] is 8% (inactive); in test [2], 8% (inactive); in test [3] it was 0% (inactive).

With `COc1ccccc1-c1nnc(C2CCN(S(=O)(=O)c3ccc([N+](=O)[O-])cc3)CC2)o1`, the inhibition is 9% (inactive) in test [1], 5% (inactive) in test [2] and 16% (inactive) in test [3].

For the molecule `Cc1cccc(NC(=O)CN2C(=O)S/C(=C\c3cc(C)n(C)c3C)C2=O)c1`, the inhibition is 51% in test [1], 40% in test [2] and 9% (inactive) in test [3].

On to `CS(=O)(=O)Nc1ccc(N2CCN(c3ccc(C(F)(F)F)cn3)CC2)nc1`, for which the values for the inhibition in test [1], in test [2] and in test [3] were 8% (inactive), 1% (inactive) and 0% (inactive), respectively.

With `CC(CCC(C)C)=NNC(=S)Nc1cc(S(=O)(=O)N2CCOCC2)ccc1N1CCOCC1`, the inhibition is 8% (inactive) in test [1], 16% (inactive) in test [2] and 19% (inactive) in test [3].

Take `Cc1nc([N+](=O)[O-])cn1CC(=O)Nc1ccc(F)c(Cl)c1`: the inhibition in test [1] was 10% (inactive); in test [2], 15% (inactive); in test [3], 0% (inactive).

Consider `Cc1nc(-c2ccc(S(=O)(=O)N3CCCN(CCc4ccccc4)CC3)s2)cs1`, for which the results for the inhibition in test [1], in test [2] and in test [3] were 8% (inactive), 0% (inactive) and 7% (inactive), respectively.

Consider `O=C(CN1C(=O)S/C(=C\c2ccc(C(=O)O)cc2)C1=O)Nc1ccccc1`, for which the figures for the inhibition in test [1], in test [2] and in test [3] were 8% (inactive), 8% (inactive) and 7% (inactive), respectively.

Turning to `COc1ccc(N2CCN(C(=O)c3ccc(C(C)(C)C)cc3)CC2)cc1`, the inhibition was 57% in test [1], 47% in test [2] and 16% (inactive) in test [3].

Take `Cc1cccc(NC(=O)CN2C(=O)S/C(=C\c3cccn3-c3cccc(C(=O)O)c3)C2=O)c1`: the inhibition in test [1] was 66%; in test [2] it was 77%; in test [3], 17% (inactive).

Regarding `COc1ccc(-n2nc(C(=O)NCC(=O)N3CCN(c4cccc(Cl)c4)CC3)c3ccccc3c2=O)c(OC)c1`, the results for the inhibition in test [1], in test [2] and in test [3] were 52%, 41% and 33%, respectively.

As to `O=C(Nc1ccc(N2CCN(C(=O)c3ccco3)CC2)c(Cl)c1)c1c(F)c(F)c(F)c(F)c1F`, the inhibition was 5% (inactive) in test [1], 0% (inactive) in test [2] and 18% (inactive) in test [3].

With `O=C(NC(=S)Nc1sc2c(c1C(=O)O)CCCC2)c1ccccc1`, the inhibition in test [1] is 32%; in test [2] it was 43%; in test [3], 34%.

Consider `COc1ccc(OC)c(-c2cc(C(=O)Nc3c(C)nn(Cc4ccccc4)c3C)no2)c1`, for which the inhibition in test [1] was 3% (inactive); in test [2], 0% (inactive); in test [3], 15% (inactive).

On to `O=C(Cc1ccc([N+](=O)[O-])cc1)N1CCN(c2ccc([N+](=O)[O-])cc2)CC1`, for which the inhibition in test [1], in test [2] and in test [3] was 0% (inactive) each time.

As for `C/C(C=NNC(=O)Cn1nnc(N)n1)=C\c1ccc(C(C)C)cc1`, the figures for the inhibition in test [1], in test [2] and in test [3] were 2% (inactive), 0% (inactive) and 0% (inactive), respectively.

For `COc1ccc(-n2nc(C(=O)NCC(=O)N3CCN(Cc4ccccc4)CC3)c3ccccc3c2=O)c(OC)c1`, the values for the inhibition in test [1], in test [2] and in test [3] were 18% (inactive), 15% (inactive) and 0% (inactive), respectively.

For the molecule `O=C(c1ccc2n[nH]nc2c1)N1CCN(c2ccc(C(F)(F)F)cn2)CC1`, the values for the inhibition in test [1], in test [2] and in test [3] were 26% (inactive), 35% and 40%, respectively.

For the molecule `COc1ccc2c(c1)C(=O)[C@@H](O)[C@H](c1ccc(OC)c(Br)c1)O2`, the inhibition in test [1] is 20% (inactive); in test [2] it was 31%; in test [3], 13% (inactive).

Consider `O=[N+]([O-])c1ccc(Oc2cccc(Br)c2)c2ccncc12`, for which the inhibition is 2% (inactive) in test [1], 0% (inactive) in test [2] and 13% (inactive) in test [3].
